Data from paper PMC8021118, “Shared recognition of citrullinated tenascin-C peptides by T and B cells in rheumatoid arthritis” (JCI Insight, 2021).
pEC50: −log10 of the molar value. “And” between values parts separate entries of the source, which are not always exact repeats. Identical values can stand only once. Where a SMILES comes first, the peptide text is derived from it. Where no end group is shown, it is not given here. [ ]: non-standard residue; d: D form. Cit = NC(=O)NCCC[C@H](N)C(=O)O

Tests used:
[1] = test system: CD4+ memory T cells in peripheral blood; experiment: Ex vivo detection of peptide-specific memory CD4+ T cells by multiplex HLA class II tetramer staining; format: cell-based, human; conditions: for Frequencies of peptide-specific memory CD4+ T cells: mean ± SEM, SEM
[2] = test system: CD4+ T cells in PBMC from HLA-DRB1*04:01+ subjects; experiment: In vitro expansion of peptide-specific CD4+ T cells from PBMC and HLA class II tetramer staining; format: cell-based, human; conditions: for Responders (% in RA): RA subjects with positive in vitro response (>0.1% of CD4+ T cells tetramer+) of total tested, 10 μg/mL peptide, 14 days, n = 14, TNC44 and TNC59 n = 6; for Immunogenicity: Supplemental Table 1, ability to elicit an immune response in vitro (tetramer staining after expansion)
Text: TNC is a large protein (2110 amino acids in length) composed of an N-terminal assembly domain, 14.5 epidermal growth factor–like repeats (EGF-L), 8 constant fibronectin type III–like repeats (FNIII), and an additional 9 alternatively spliced FNIII elements, and a C-terminal fibrinogen-like globe (FBG) ([16]). Using a previously described algorithm ([9], [24]), we scanned the entire length of the TNC monomer and identified 64 arg-containing peptides with motifs that would predict to permit binding to HLA-DRB1*04:01 in either their noncitrullinated native form, citrullinated form, or both. Based on these predictions, we synthesized the citrullinated versions of these peptides and tested their ability to bind HLA-DRB1*04:01 and to elicit CD4^+ T cell expansion in vitro. Of the peptides synthesized, 8 cit-TNC peptides bound to HLA-DRB1*04:01 with moderate to high affinity (Table 1). Among these, cit-TNC17, cit-TNC22, cit-TNC45, cit-TNC50, and cit-TNC56 were determined to be the most immunogenic, based on their ability to drive epitope-specific T cell expansion, as measured by HLA class II tetramer (Tmr) staining of peripheral blood mononuclear cells (PBMC) from HLA-DRB1*04:01^+ subjects following 2 weeks of in vitro expansion (Table 1 and Supplemental Figure 1; supplemental material available online with this article; https://doi.org/10.1172/jci.insight.145217DS1).
Recombinant HLA-DRB1*04:01 protein was produced by the BRI Tetramer Core as previously described ([56]). Soluble HLA-DRB1*04:01 monomer was purified from insect cell culture supernatants and biotinylated at a sequence-specific site using biotin ligase (Avidity) prior to dialysis into phosphate storage buffer. The biotinylated monomer was loaded with 0.2 mg/mL of peptide by incubating at 37°C for 72 hours in the presence of 2.5 mg/mL n-octyl β-D-glucopyranoside and 1 mM Pefabloc SC (Sigma-Aldrich). Peptide-loaded monomers were conjugated into Tmrs using fluorescently labeled streptavidin (Invitrogen) for 6–18 hours at room temperature at a molar ratio of 8:1.
Cryopreserved PBMCs from RA and healthy subjects were cultured at 5 × 10^6 cells/well in a 48-well plate in RPMI-1640 + 10% HPS with 10 μg/mL of peptide. IL-2 (Novartis) was added at 325 IU/mL on day 6. On day 14, cells were stained for expression of Tmr-PE, CD25 APC (BD Biosciences), and CD4 FITC (BioLegend) (Supplemental Table 8) and then run on a FACSCanto. The data were analyzed by FlowJo software version 10.

HLA-DRB1*04:01 = HLA-DRB1*04:01 (Homo sapiens, UniProt P01903+P01911, A100K/A169T/F76Y/I96L/K127E/L162R/M171V/N62H/P40V/Q125Y/R42H/S133A/S149N/S66Y/V115G/V209L/W38E); experiment: Peptide competition binding assay to HLA-DRB1*04:01
[3] = test system: serum IgG antibodies of RA subjects; experiment: ELISA for serum antibodies against peptide; format: binding, human; conditions: Cys-flanked ELISA peptides
Experimental: (§1) ELISAs were used to detect antibodies against citrullinated peptides in sera from patients in Autoantibody Cohorts 1 and 2 (Supplemental Table 2). Peptides used in the assay were synthesized by either GenScript or Pepceutical and are described in Supplemental Table 5. The ELISAs were conducted as previously described ([18], [26]). In brief, 96-well Nunc Maxisorp plates were coated with 10 μg/mL peptide in PBS, blocked with 2% BSA, and incubated with sera diluted 1:100. Bound antibodies were detected with an HRP-conjugated anti–human IgG Fc monoclonal antibody (6043HRP, Stratech). A standard curve of positive sera was used to calculate relative antibody titers in arbitrary units (AU) for each sample. The CCP2 ELISA for Autoantibody Cohort 1 was performed as by the manufacturer’s instruction (FCCP600, Axis-Shield). Cross-reactivity to cit-TNC56, cit-TNC17, or cit-TNC5 was analyzed in human sera reactive to cit-TNC56 or cit-TNC17. Sera were diluted 1:100, incubated with 1, 10, and 100 μg/mL of peptides for 2 hours and centrifuged at 10,000g for 10 minutes at room temperature, and the supernatant was added to peptide-coated plates for analysis by ELISA as described above. Positivity was defined by the cut-off of the 98th percentile of HC samples from Autoantibody Cohort 1.

[4] = test system: Synovial fluid mononuclear cells (SFMC) from HLA-DRB1*04:01 RA patients; experiment: FluoroSpot cytokine secretion by synovial fluid mononuclear cells stimulated with peptide; format: cell-based, human; conditions: for IFN-γ secretion by SFMC (in words): 20 μg/mL peptide, 48 hours, 3-color FluoroSpot, RA n = 7, 15-mer T cell peptides; for IL-10 production by SFMC (in words) / IL-17 production by SFMC (in words): peptide stimulation 48 hours, three-color fluorospot, RA n=7
[5] = test system: anti-cit-TNC antibodies in double-reactive RA sera; experiment: Cross-reactivity (peptide absorption/inhibition) ELISA; format: binding, human; conditions: for Absorption by the homologous peptide (in words): sera double-reactive for cit-TNC17 and cit-TNC56
Experimental: Sera that were double-reactive with peptides cit-TNC17 or cit-TNC56 and cit-TNC56, cit-TNC17, or cit-TNC5 were diluted 1:100, incubated with 1, 10, and 100 μg/mL of peptides for 2 hours and centrifuged at 10,000g for 10 minutes, and the supernatant then added to peptide-coated plates for analysis by ELISA. […] (B) Limited cross-reactivity between anti–cit-TNC56 and both anti–cit-TNC17 and anti–cit-TNC5. Each panel was run on a separate plate.
as §1

[6] = Autoantibody Cohort 1: HLA-DRB1*04:01, CCP+ RA sera (n = 17), diluted 1:100, cut-off 98th percentile of HC
[7] = Autoantibody Cohort 2, CCP+ RA (n = 55)
[8] = Autoantibody Cohort 2, CCP– RA (n = 43)

Compound | Percentages of subjects with a detectable ex vivo response ([1]; Healthy control subjects (n=7)) [%] | Frequencies of peptide-specific memory CD4+ T cells ([1]; Healthy control subjects (n=7)) | Percentages of subjects with a detectable ex vivo response ([1]; RA subjects (n=9)) [%] | Frequencies of peptide-specific memory CD4+ T cells ([1]; RA subjects (n=9)) | Responders (% in RA) [2] [%] | Immunogenicity [2] | pEC50 (HLA-DRB1*04:01) | Percentage of subjects seropositive for antibodies to peptide [3, 6] [%] | IFN-γ secretion by SFMC (in words) [4] | also measured
CC(C)C[C@H](NC(=O)[C@H](CCCNC(N)=O)NC(=O)[C@H](Cc1ccc(O)cc1)NC(=O)[C@H](CCCNC(N)=O)NC(=O)[C@H](CC(=O)O)NC(=O)[C@@H](N)Cc1ccccc1)C(=O)N[C@@H](CC(N)=O)C(=O)N[C@@H](Cc1ccc(O)cc1)C(=O)N[C@@H](CO)C(=O)N[C@@H](CC(C)C)C(=O)N1CCC[C@H]1C(=O)N[C@H](C(=O)NCC(=O)N[C@@H](CCC(N)=O)C(=O)N[C@@H](Cc1c[nH]c2ccccc12)C(=O)O)[C@@H](C)O [TNC22] (H-FD[Cit]Y[Cit]LNYSLPTGQW-OH) | 71 | 3.0±1.2 /million memory CD4+ T cells | 56 | 3.8±1.9 /million memory CD4+ T cells | 46 | Yes | 6.15 | – | – | –
CC(C)C[C@H](NC(=O)[C@H](CCCNC(N)=O)NC(=O)[C@H](Cc1ccccc1)NC(=O)CNC(=O)[C@H](CC(=O)O)NC(=O)[C@@H]1CCCN1)C(=O)N[C@@H](CO)C(=O)N[C@@H](Cc1c[nH]c2ccccc12)C(=O)N[C@H](C(=O)N[C@@H](C)C(=O)N[C@@H](CC(=O)O)C(=O)N[C@@H](CCC(=O)O)C(=O)NCC(=O)N[C@H](C(=O)N[C@@H](Cc1ccccc1)C(=O)O)C(C)C)[C@@H](C)O [TNC45] (H-PDGF[Cit]LSWTADEGVF-OH) | 71 | 2.6±1.0 /million memory CD4+ T cells | 100 | 22.6±6.4 /million memory CD4+ T cells | 50 | Yes | 4.77 | – | – | –
CC[C@H](C)[C@H](NC(=O)[C@H](CCCNC(N)=O)NC(=O)[C@H](Cc1ccccc1)NC(=O)[C@H](CO)NC(=O)[C@H](CCC(=O)O)NC(=O)[C@@H](N)C(C)C)C(=O)N[C@H](C(=O)N[C@@H](Cc1ccc(O)cc1)C(=O)N[C@H](C(=O)N1CCC[C@H]1C(=O)N[C@H](C(=O)N[C@H](C(=O)NCC(=O)NCC(=O)N[C@H](C(=O)O)[C@@H](C)O)[C@@H](C)O)[C@@H](C)CC)C(C)C)[C@@H](C)O [TNC50] (H-VESF[Cit]ITYVPITGGT-OH) | 71 | 1.5±0.6 /million memory CD4+ T cells | 100 | 9.6±3.1 /million memory CD4+ T cells | 50 | Yes | 6.00 | – | – | –
CEHSIQFAEMKL[Cit]PSNF[Cit]NLEG[Cit][Cit]KRC (cysteine pairing not given here) [cit-TNC5, previously published cit-TNC5 peptide, positive control in antibody ELISA, reference compound] | – | – | – | – | – | – | – | 47 | – | –
CEYEVSLIS[Cit][Cit]GDMSSNPAC [cit-TNC17, Cys-flanked citrullinated TNC17 peptide used for detection of antibodies by ELISA] | – | – | – | – | – | – | – | 100 | elicited IFN-γ secretion by SFMC | IL-10 production by SFMC (in words) [4]: produced; Cross-reactivity with cit-TNC5 (in words) ([5]; double-reactive sera): no cross-reactivity; Absorption by the homologous peptide (in words) [5]: efficient; maximum inhibition ([5]; serum 6, cit-TNC17 versus cit-TNC56, sera 1:100, 1, 10 and 100 μg/mL peptide, 2 hours): 22%; Percentage of subjects seropositive for antibodies to peptide [3, 7]: 63.6% and 64%; Percentage of subjects seropositive for antibodies to peptide [3, 8]: 2.3%
CPTAQVESF[Cit]ITYVPITGGC [cit-TNC50, Cys-flanked citrullinated TNC50 peptide used in ELISA] | – | – | – | – | – | – | – | – | – | IL-17 production by SFMC (in words) [4]: produced
CQGQYEL[Cit]VDL[Cit]DHGETAFC [cit-TNC56, Cys-flanked citrullinated TNC56 peptide used in ELISA] | – | – | – | – | – | – | – | 53 | elicited IFN-γ secretion by SFMC | IL-17 production by SFMC (in words) [4]: produced; Absorption by the homologous peptide (in words) [5]: efficient; maximum inhibition ([5]; serum 2, cit-TNC56 versus cit-TNC17, sera 1:100, 1, 10 and 100 μg/mL peptide, 2 hours): 24.8%; maximum inhibition ([5]; serum 2, cross-reactivity between cit-TNC56 and cit-TNC5): 38.7%; maximum inhibition ([5]; serum 6, citTNC56 versus cit-TNC17, sera 1:100, 1, 10 and 100 μg/mL peptide, 2 hours): 43%; Percentage of subjects seropositive for antibodies to peptide [3, 7]: 45.5%; Percentage of subjects seropositive for antibodies to peptide [3, 8]: 11.6%
CTPLAKFD[Cit]Y[Cit]LNYSLPTGC [cit-TNC22, Cys-flanked citrullinated TNC22 peptide used in ELISA] | – | – | – | – | – | – | – | 35 | elicited IFN-γ secretion by SFMC | IL-10 production by SFMC (in words) [4]: produced
CVSDATPDGF[Cit]LSWTADEGC [cit-TNC45, Cys-flanked citrullinated TNC45 peptide used in ELISA] | – | – | – | – | – | – | – | 29 | elicited IFN-γ secretion by SFMC | –
